Literature values as cited in patent publication US12508229B2, “Method for preparing stable peptide formulations” (Amphastar Pharmaceuticals, Inc., priority 2019, dated 2025).

## OC[C@H]1O[C@@H]2O[C@H]3[C@H](O)[C@@H](O)[C@@H](O[C@H]4[C@H](O)[C@@H](O)[C@@H](O[C@H]5[C@H](O)[C@@H](O)[C@@H](O[C@H]6[C@H](O)[C@@H](O)[C@@H](O[C@H]7[C@H](O)[C@@H](O)[C@@H](O[C@H]1[C@H](O)[C@H]2O)O[C@@H]7CO)O[C@@H]6CO)O[C@@H]5CO)O[C@@H]4CO)O[C@@H]3CO [α-CD, α-cyclodextrin]
  aqueous solubility: about 5 wt %

## OC[C@H]1O[C@@H]2O[C@H]3[C@H](O)[C@@H](O)[C@@H](O[C@H]4[C@H](O)[C@@H](O)[C@@H](O[C@H]5[C@H](O)[C@@H](O)[C@@H](O[C@H]6[C@H](O)[C@@H](O)[C@@H](O[C@H]7[C@H](O)[C@@H](O)[C@@H](O[C@H]8[C@H](O)[C@@H](O)[C@@H](O[C@H]9[C@H](O)[C@@H](O)[C@@H](O[C@H]1[C@H](O)[C@H]2O)O[C@@H]9CO)O[C@@H]8CO)O[C@@H]7CO)O[C@@H]6CO)O[C@@H]5CO)O[C@@H]4CO)O[C@@H]3CO [γ-cyclodextrin]
  aqueous solubility (in words): freely soluble in water

## hydroxypropyl β-cyclodextrin [HP-ß-CD]
  aqueous solubility (in words): higher aqueous solubility than α-CD
